Experimental data from publication PMC8119466, “A screen of FDA-approved drugs identifies inhibitors of protein tyrosine phosphatase 4A3 (PTP4A3 or PRL-3)” (Scientific Reports, 2021).
Structures can show the parent of a compound that is named as a salt. Where two headings read alike, the source gives them in different places.

Tests used:
Assay type in all cases: biochemical
[1] = molecular target: T1, recombinant PRL-3 (Homo sapiens, UniProt O75365); assay: In vitro phosphatase assay (DiFMUP hydrolysis), PRL-3; also: test concentration or dose not given here
T1 construct: 6xHis (N, cleaved yes); made in house; host or cells: E. coli One Shot BL21 Star

[2] = molecular target: T2, recombinant PRL-2 (Homo sapiens, UniProt Q12974); assay: In vitro phosphatase assay (DiFMUP hydrolysis), PRL-2;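 also: PRL-2 activity read as DiFMUP hydrolysis after 20 min at room temperature with drug, enzyme first pre-reduced at 4 °C for 20 min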
T2 construct: 6xHis (N, cleaved yes); made in house; host or cells: E. coli One Shot BL21 Star
T2 sequence (Q12974 1-167): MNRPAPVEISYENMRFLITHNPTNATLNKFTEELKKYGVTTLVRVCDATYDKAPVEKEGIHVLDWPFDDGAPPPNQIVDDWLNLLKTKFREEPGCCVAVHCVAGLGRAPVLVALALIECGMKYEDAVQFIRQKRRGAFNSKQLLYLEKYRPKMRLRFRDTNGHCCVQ

[3] = molecular target: T3, recombinant PRL-1 (Homo sapiens, UniProt Q93096); assay: In vitro phosphatase assay (DiFMUP hydrolysis), PRL-1; also: test concentration or dose not given here
T3 construct: 6xHis (N, cleaved yes); made in house; host or cells: E. coli One Shot BL21 Star
T3 sequence (Q93096 1-173): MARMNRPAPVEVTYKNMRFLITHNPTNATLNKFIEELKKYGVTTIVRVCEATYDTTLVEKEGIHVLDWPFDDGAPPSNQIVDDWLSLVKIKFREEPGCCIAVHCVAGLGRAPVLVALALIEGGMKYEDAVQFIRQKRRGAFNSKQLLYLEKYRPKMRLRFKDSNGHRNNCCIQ

[4] = FDA-approved drug screen, compared to DMSO

T1 sequence (O75365 whole entry): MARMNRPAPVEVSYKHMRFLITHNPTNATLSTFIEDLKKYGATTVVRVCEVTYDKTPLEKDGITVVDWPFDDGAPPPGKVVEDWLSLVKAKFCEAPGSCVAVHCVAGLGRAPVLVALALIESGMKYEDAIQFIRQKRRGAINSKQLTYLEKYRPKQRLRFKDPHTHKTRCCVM

Row | SMILES | % Phosphatase Activity (compared to DMSO) PRL-3 [1, 4] | % Phosphatase Activity (compared to DMSO) PRL-2 [2, 4] | % Phosphatase Activity (compared to DMSO) PRL-1 [3, 4] | % Phosphatase Activity (compared to DMSO) PRL-3 [1] | % Phosphatase Activity (compared to DMSO) PRL-2 [2] | % Phosphatase Activity (compared to DMSO) PRL-1 [3]
1 | C=CC1=C(C(=O)O)N2C(=O)[C@@H](NC(=O)/C(=N\OCC(=O)O)c3csc(N)n3)[C@H]2SC1 [Cefixime] | 90% | 90% | 89% | – | – | –
2 | CO/N=C(\C(=O)N[C@@H]1C(=O)N2C(C(=O)O)=C(CSc3nnnn3C)CS[C@H]12)c1csc(N)n1.CO/N=C(\C(=O)N[C@@H]1C(=O)N2C(C(=O)O)=C(CSc3nnnn3C)CS[C@H]12)c1csc(N)n1.Cl [Cefmenoxime hydrochloride] | 84% | 98% | 92% | – | – | –
3 | CCN1CCN(C(=O)N[C@@H](C(=O)N[C@@H]2C(=O)N3C(C(=O)O)=C(CSc4nnnn4C)CS[C@H]23)c2ccc(O)cc2)C(=O)C1=O [Cefoperazone] | 89% | 94% | 100% | – | – | –
4 | CO/N=C(\C(=O)N[C@@H]1C(=O)N2C(C(=O)O)=C(COC(C)=O)CS[C@H]12)c1csc(N)n1 [Cefotaxime sodium] | 91% | 118% | 112% | – | – | –
5 | CC1=C(C(=O)O)N2C(=O)[C@@H](NC(=O)[C@H](N)C3=CCC=CC3)[C@H]2SC1 [Cefradine] | 102% | 76% | 95% | – | – | –
6 | CC(C)(O/N=C(\C(=O)N[C@@H]1C(=O)N2C(C(=O)[O-])=C(C[n+]3ccccc3)CS[C@H]12)c1csc(N)n1)C(=O)O [Ceftazidime Pentahydrate] | 103% | 106% | 100% | – | – | –
7 | CO/N=C(\C(=O)N[C@@H]1C(=O)N2C(C(=O)O)=C(CSC(=O)c3ccco3)CS[C@H]12)c1csc(N)n1.Cl [Ceftiofur HCl] | 84% | 104% | 107% | – | – | –
8 | CO/N=C(/C(=O)N[C@@H]1C(=O)N2C(C(=O)[O-])=C(CSc3nc(=O)c([O-])nn3C)CS[C@H]12)c1csc(N)n1.O.O.O.[Na+].[Na+] [Ceftriaxone Sodium Trihydrate] | 108% | 115% | 102% | – | – | –
9 | CO/N=C(\C(=O)N[C@@H]1C(=O)N2C(C(=O)O)=C(COC(N)=O)CS[C@H]12)c1ccco1 [Cefuroxime sodium] | 82% | 96% | 96% | – | – | –
10 | Cc1ccc(-c2cc(C(F)(F)F)nn2-c2ccc(S(N)(=O)=O)cc2)cc1 [Celecoxib] | 71% | 81% | 92% | – | – | –
11 | CC1=C(C(=O)O)N2C(=O)[C@@H](NC(=O)[C@H](N)c3ccccc3)[C@H]2SC1 [Cephalexin] | 98% | 81% | 98% | – | – | –
12 | CC(=O)OCC1=C(C(=O)O)N2C(=O)[C@@H](NC(=O)Cc3cccs3)[C@H]2SC1 [Cephalothin] | 82% | 91% | 97% | – | – | –
13 | CCS(=O)(=O)N1CCN(c2ccc(Nc3ncc(C(N)=O)c(NC4CC4)n3)cc2)CC1 [Cerdulatinib (PRT062070, PRT2070)] | 95% | 82% | 95% | – | – | –
14 | Cl.Cl.O=C(O)COCCN1CCN(C(c2ccccc2)c2ccc(Cl)cc2)CC1 (stereo not drawn) [Cetirizine DiHCl] | – | – | – | 84% | 89% | 92%
15 | CCCCCCCCCCCCCCCC[N+](C)(C)C.[Br-] [Cetrimonium Bromide (CTAB)] | 92% | 103% | 97% | – | – | –
16 | C[C@H](CCC(=O)O)[C@H]1CC[C@H]2[C@@H]3[C@H](O)C[C@@H]4C[C@H](O)CC[C@]4(C)[C@H]3CC[C@]12C [Chenodeoxycholic Acid] | 115% | 102% | 87% | – | – | –
17 | O=C(N[C@H](CO)[C@H](O)c1ccc([N+](=O)[O-])cc1)C(Cl)Cl [Chloramphenicol] | 83% | 80% | 96% | – | – | –
18 | [H]/N=C(\N/C(=N/[H])NCCCCCCNC(=N)NC(=N)Nc1ccc(Cl)cc1)Nc1ccc(Cl)cc1 [Chlorhexidine HCl] | 118% | 112% | 97% | – | – | –
19 | CC(=O)O[C@]1(C(C)=O)CC[C@H]2[C@@H]3C=C(Cl)C4=CC(=O)CC[C@]4(C)[C@H]3CC[C@@]21C [Chlormadinone acetate] | 81% | 76% | 85% | – | – | –
20 | CN1C(=O)CCS(=O)(=O)C1c1ccc(Cl)cc1 (stereo not drawn) [Chlormezanone] | 91% | 127% | 81% | – | – | –
21 | O=C(O)CCCc1ccc(N(CCCl)CCCl)cc1 [Chloroambucil] | 77% | 103% | 98% | – | – | –
22 | Cc1cc(O)ccc1Cl [Chlorocresol] | 77% | 101% | 89% | – | – | –
23 | NS(=O)(=O)c1cc2c(cc1Cl)N=CNS2(=O)=O [Chlorothiazide] | 76% | 80% | 105% | – | – | –
24 | COc1ccc(C(Cl)=C(c2ccc(OC)cc2)c2ccc(OC)cc2)cc1 [Chlorotrianisene] | 92% | 110% | 103% | – | – | –
